From patent US20090143484A1, “USE OF GARLIC OIL TO INCREASE BIOAVAILABILITY OF COENZYME Q-10” (priority 2007, published 2009) come the findings set out here.

The test system of data set [1] is Caco-2 HTB-37 (human colon adenocarinoma). In words: Absorption testing using Caco-2 cells (cellular uptake of CoQ10, HPLC). The class given is in vitro ADME. As to conditions: 37° C., up to 2 h. Here is the method: Caco-2 HTB-37 (human colon adenocarinoma), obtained from ATCC, were cultured in DMEM (Dulbecco/Vogt modified Eagle's minimal essential medium) containing 20% FCS (Fetal Calf Serum), 1% nonessential amino acids, 0.83 mM L-glutamine and 1% penicillin-streptomycin at 37° C. in a humified atmosphere of CO2. Cells were grown in 75 cm^2 culture-flasks (T75) and their medium was replaced every third day. As soon as confluency was reached—once a week—they were split using trypsin.
After discarding the old medium, the monolayer was washed with 10 mL PBS. Subsequently, 3 mL trypsin was added in order to detach the cells. […]
The remaining 9 mL cell-suspension was used for experiments and was therefore transferred into a 15 mL falcon. After the cells had been counted by using a Neubauer-chamber, cells were seeded into 6 Well Thin Certs and 6 Wells at a density of 3×10^5 and 6.76×10^5, respectively. […]
The optimum amount of the emulsifier lecithin had to be determined individually for each sample. […]
A reversed-phase column (Spherimage-80) with 5 μm pore size and […] was used. […] Coenzyme Q10 (oxidized and reduced) were monitored at 275 nm.
CoQ10 was determined in the media (outside the cells) and in the cells. Both, oxidized and reduced CoQ10, were quantified. […]

The subject of the next data set is Human LDL. The experiment in a line: Prevention of LDL oxidation (CuSO4-initiated conjugated diene formation at 234 nm). Format: biochemical. The note with it: LDL 0.1 mg/ml. Here is the method:
Human LDL were obtained by ultracentrifugation from fresh human blood, followed by dialysis against in 10 mM PBS (pH 7.4) at 4° C. in the dark for 24 h. LDL (0.1 mg/ml) were mixed with different amounts of active constituents. Reaction was initiated by adding a solution of CuSO4 (10 μM); samples were then incubated at 37° C. for 22 h. The formation of conjugated diene was measured at 234 nm using a Hewlett-Packard spectrophotometer (Agilent, Palo Alto).
Data evaluation was performed by comparison of the slope of increase in diene-formation. The steepest slope (i.e. without addition of anti-oxidants) was set to 100%. Results are given as relative %.
The lag-time until start of diene formation was estimated from the kinetic curves obtained. Results are given in minutes.

For orientation: Inhibition means how much of the control response was suppressed. High values mean a response far below the control, low ones a response near the control. Take `COC1=C(OC)C(=O)C(C/C=C(\C)CC/C=C(\C)CC/C=C(\C)CC/C=C(\C)CC/C=C(\C)CC/C=C(\C)CC/C=C(\C)CC/C=C(\C)CC/C=C(\C)CCC=C(C)C)=C(C)C1=O` [CoQ10]: the “content of CoQ10 in the media during the incubation conditions” value in data set [1] was “stable”. In addition, the Inhibition in the data set with Human LDL (0.1 mg/mL of CoQ10) is reported as 13%; in the data set with Human LDL (1 mg/mL of CoQ10), 43%; with Human LDL (1 mg/mL of CoQ10, listed as CoQ-10) it was “about 43%”; with Human LDL (10 mg/mL of CoQ10) it was 68%. Besides, the figures for the Residual activity in the data set on Human LDL (0.1 mg/mL of CoQ10), in the data set with Human LDL (1 mg/mL of CoQ10) and in the data set on Human LDL (10 mg/mL of CoQ10) were 87%, 57% and 32%, respectively. Further, the “Lag Time” value in the data set with Human LDL (lag time to start of LDL-oxidation, Co Q10 1 mg/mL) is 146 min.
